From ChEMBL document CHEMBL4052585 (J Med Chem, 2017) come the findings set out here.

SMILES strings stand for the structures. Converted amounts (≈) assume the structure as drawn.

By Ki is commonly meant a measure of affinity in units of concentration, obtained from inhibition or displacement. In general, logD refers to lipophilicity at a set pH, counting ionised and neutral species. One may read the Kd as the constant that tells how readily two partners part at equilibrium. Usually Vd stands for the apparent volume that relates the amount in the body to the concentration in plasma or blood. The IC50 is the concentration needed to halve the response being measured. In general, Papp refers to a coefficient for how fast a substance crosses the barrier. One may read the clearance as a measure of how efficiently the substance is removed, as volume per time.

For series [1], the target named is T1, Mitogen-activated protein kinase kinase kinase 14 (Homo sapiens, UniProt Q99558). Description: Inhibition of NIK (unknown origin) after 1 to 2 hrs by ADP-FP assay.
T1 sequence (Q99558 whole entry): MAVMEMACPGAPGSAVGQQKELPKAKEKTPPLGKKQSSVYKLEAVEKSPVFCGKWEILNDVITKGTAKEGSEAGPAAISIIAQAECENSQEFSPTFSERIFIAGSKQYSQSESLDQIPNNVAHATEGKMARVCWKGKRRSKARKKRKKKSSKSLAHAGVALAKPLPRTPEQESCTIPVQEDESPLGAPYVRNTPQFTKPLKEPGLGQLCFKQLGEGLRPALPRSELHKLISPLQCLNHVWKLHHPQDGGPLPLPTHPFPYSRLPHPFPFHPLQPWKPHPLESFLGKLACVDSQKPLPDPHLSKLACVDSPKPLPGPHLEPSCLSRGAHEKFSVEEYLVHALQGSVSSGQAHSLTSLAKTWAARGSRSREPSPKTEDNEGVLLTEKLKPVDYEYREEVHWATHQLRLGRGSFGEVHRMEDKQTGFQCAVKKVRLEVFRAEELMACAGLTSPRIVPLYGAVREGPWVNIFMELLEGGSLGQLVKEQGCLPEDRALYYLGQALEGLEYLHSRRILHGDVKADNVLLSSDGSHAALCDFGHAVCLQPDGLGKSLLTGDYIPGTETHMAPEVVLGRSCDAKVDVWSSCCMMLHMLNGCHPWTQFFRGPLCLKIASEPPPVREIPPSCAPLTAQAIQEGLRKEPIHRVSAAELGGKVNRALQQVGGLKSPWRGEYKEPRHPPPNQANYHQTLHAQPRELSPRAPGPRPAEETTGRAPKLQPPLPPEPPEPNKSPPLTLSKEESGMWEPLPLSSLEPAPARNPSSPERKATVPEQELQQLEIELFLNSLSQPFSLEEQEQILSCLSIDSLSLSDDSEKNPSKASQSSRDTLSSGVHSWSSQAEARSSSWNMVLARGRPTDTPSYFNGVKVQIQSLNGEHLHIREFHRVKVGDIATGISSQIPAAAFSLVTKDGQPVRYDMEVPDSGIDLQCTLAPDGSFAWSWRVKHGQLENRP
Series [2] deals with PI3-kinase p110-delta/p85-alpha (Homo sapiens, UniProt O00329). Description: Inhibition of N-terminal His6-tagged recombinant full-length human p110delta/untagged recombinant full length human p85alpha expressed in baculovirus infected Sf21 insect cells using PIP2:3PS lipid substrate after 120 mins by ADP-Glo assay. On the technique in general: In ADP-Glo the light output rises with the ADP produced.
Chain of PI3-kinase p110-delta/p85-alpha (P27986 whole entry): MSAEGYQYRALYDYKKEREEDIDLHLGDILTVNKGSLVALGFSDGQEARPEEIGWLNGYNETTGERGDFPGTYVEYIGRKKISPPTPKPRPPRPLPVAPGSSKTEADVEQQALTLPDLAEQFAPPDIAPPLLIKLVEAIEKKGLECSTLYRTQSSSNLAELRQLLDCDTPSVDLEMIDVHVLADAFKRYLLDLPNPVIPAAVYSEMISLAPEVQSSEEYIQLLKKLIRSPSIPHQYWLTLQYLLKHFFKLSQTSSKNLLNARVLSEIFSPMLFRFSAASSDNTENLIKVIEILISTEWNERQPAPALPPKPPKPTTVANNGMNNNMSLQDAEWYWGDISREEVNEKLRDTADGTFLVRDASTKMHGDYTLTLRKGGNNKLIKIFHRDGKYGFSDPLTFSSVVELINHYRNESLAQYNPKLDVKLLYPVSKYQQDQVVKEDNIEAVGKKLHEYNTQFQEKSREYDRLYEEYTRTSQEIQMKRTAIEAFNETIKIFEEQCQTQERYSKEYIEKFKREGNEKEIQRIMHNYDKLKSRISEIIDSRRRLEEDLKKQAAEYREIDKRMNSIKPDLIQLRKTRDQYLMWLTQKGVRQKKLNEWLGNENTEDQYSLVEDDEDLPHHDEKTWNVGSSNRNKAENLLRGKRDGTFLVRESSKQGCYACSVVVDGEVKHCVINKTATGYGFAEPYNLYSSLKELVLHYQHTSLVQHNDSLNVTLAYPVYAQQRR
Chain of PI3-kinase p110-delta/p85-alpha (O00329 whole entry): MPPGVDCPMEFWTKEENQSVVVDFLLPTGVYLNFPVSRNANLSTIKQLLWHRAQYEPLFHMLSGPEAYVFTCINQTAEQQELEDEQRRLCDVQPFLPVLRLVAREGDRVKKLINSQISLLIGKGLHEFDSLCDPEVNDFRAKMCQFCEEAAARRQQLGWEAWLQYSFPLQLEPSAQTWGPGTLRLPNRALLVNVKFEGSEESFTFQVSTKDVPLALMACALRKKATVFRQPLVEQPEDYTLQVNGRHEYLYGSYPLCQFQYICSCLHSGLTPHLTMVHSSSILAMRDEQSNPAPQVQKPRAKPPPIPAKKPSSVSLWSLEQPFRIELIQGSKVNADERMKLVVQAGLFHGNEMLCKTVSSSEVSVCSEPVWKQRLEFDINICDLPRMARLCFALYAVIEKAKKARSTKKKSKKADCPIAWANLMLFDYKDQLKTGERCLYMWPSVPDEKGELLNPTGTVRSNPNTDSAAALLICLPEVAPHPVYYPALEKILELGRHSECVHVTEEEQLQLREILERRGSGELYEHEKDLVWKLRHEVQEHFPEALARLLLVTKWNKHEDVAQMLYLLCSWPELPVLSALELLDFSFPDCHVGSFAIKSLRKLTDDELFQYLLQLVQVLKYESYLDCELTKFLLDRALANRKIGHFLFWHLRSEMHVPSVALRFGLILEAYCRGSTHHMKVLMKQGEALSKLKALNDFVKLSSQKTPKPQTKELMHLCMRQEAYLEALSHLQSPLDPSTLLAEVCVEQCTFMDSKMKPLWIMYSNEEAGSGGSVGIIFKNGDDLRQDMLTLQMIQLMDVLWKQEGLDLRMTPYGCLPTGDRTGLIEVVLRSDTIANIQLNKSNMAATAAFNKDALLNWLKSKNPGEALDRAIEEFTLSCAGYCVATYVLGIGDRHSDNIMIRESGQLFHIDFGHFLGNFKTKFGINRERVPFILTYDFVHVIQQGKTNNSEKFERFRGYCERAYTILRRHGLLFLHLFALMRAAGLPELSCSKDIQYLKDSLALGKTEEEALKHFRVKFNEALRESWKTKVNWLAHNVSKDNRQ

A further series is described as follows: physchem. The conditions noted are these: buffer, pH 7.4.
The target in series [3] is T1, Mitogen-activated protein kinase kinase kinase 14. Description: Binding affinity to NIK (unknown origin) by SPR method.
The nature of series [4]: Oral bioavailability in Sprague-Dawley rat at 5 mg/kg. The conditions noted are these: in vivo. It is filed as ADME, organism-based.
The nature of series [5]: Volume of distribution in Sprague-Dawley rat. It is filed as ADME. The conditions noted are these: in vivo.
Series [6] has as its target T1, Mitogen-activated protein kinase kinase kinase 14. Briefly: Inhibition of NIK in human HeLa cells assessed as decrease in antilymphotoxin-beta receptor antibody-stimulated p52 translocation from cytoplasm to nucleus after 5 hrs. It is filed as cell-based.
The nature of series [7]: Volume of distribution in cynomolgus monkey. The series is classed as ADME, Macaca fascicularis. The conditions noted are these: in vivo.
Series [8] can be described thus: Apparent permeability across MDCK cells at 100 uM. The series is classed as ADME, cell-based, Canis lupus familiaris. The settings on record: dog.
Series [9] in a line: Plasma clearance in cynomolgus monkey. The series is classed as ADME, Macaca fascicularis.
The nature of series [10]: Protein binding in human plasma. It is filed as ADME, cell-free. The settings on record: read-out: PPB (converted).
Series [11] deals with T1, Mitogen-activated protein kinase kinase kinase 14. Briefly: Inhibition of NIK (unknown origin) expressed in HEK293 cells assessed as decrease in NFkappaB signal after 24 hrs by dual glo luciferase reporter gene assay. It is filed as cell-based. A general note: In a reporter assay the amount or activity of a reporter protein is the signal.
The test system of the next series is HEK293. Briefly: Cytotoxicity against HEK293 cells assessed as effect on cell viability after 24 hrs by HSV-TK reporter assay. It is filed as cell-based. The conditions noted are these: Homo sapiens, HEK293, 24 h.
Series [12] in a line: Thermodynamic solubility of compound at pH 7.4. The settings on record: buffer, read-out: Therm_solubility. The series is classed as physicochemical.
Series [13] in a line: Plasma clearance in Sprague-Dawley rat. The series is classed as ADME.
A short description of series [14]: Volume of distribution in beagle dog. It is filed as ADME, Canis lupus familiaris. The settings on record: in vivo.
Series [15] can be described thus: Plasma clearance in beagle dog. The series is classed as ADME, Canis lupus familiaris.
A short description of series [16]: Oral bioavailability in beagle dog at 5 mg/kg. It is filed as ADME, organism-based, Canis lupus familiaris. The settings on record: in vivo.

On to `Cn1nccc1Cc1c(C(N)=O)nc2n1CCOc1cc(F)c(C#CC(C)(C)O)cc1-2`, for which the Ki was 9.9 nM in series [1] and above 1000 nM in series [2].
Compound `NC(=O)c1ccc2c(n1)-c1sccc1CCO2` came in with a Ki in series [1] of 1280 nM. The compound also yielded a logD in the series “physchem” of 2.5.
Taken in the same sequence, the figures for `CC(O)(C#Cc1cc2c(cc1F)OCCn1cc(C(N)=O)nc1-2)c1cccnn1` (racemic) were 3.2 nM and 1.4.
As for `Cc1c(C(N)=O)nc2n1CCOc1cc(F)c(C#CC(C)(C)O)cc1-2`, the Ki in series [1] was 35.5 nM; in series [2], above 1000 nM. The same compound gave a logD in “physchem” of 2.2.
In the case of `CN1CC[C@](O)(C#Cc2cc3c(cc2F)OCCn2cc(C(N)=O)nc2-3)C1=O`, the logD in “physchem” was 0.94.
As to `CC(C)(O)C#Cc1cc2c(cc1F)OCCn1c-2nc(C(N)=O)c1Cc1ccccc1F`, the Ki was 7.5 nM in series [1] and above 1000 nM in [2]. In addition, the logD in the series “physchem” stood at 3.4.
On to `CC(C)(O)C#Cc1ccc2c(c1)-c1nc(C(N)=O)sc1C(F)(F)CO2`, for which the Ki in series [1] was 40 nM; in series [2], above 1000 nM.
In the series “physchem”, `CN1CC[C@@](O)(C#Cc2cc3c(cc2F)OCCn2cc(C(N)=O)nc2-3)C1=O` came in with a logD of 0.74.
In the case of `C[C@H]1Cn2cc(C(N)=O)nc2-c2cc(C#CC(C)(C)O)ccc2O1`, the Ki in series [2] was above 1000 nM.
With `CNC(=O)c1c(C(N)=O)nc2n1CCOc1cc(F)c(C#CC(C)(C)O)cc1-2`, the inhibitory constant (Ki) in [1] is 2 nM; in series [2], above 1000 nM. This compound also gave a logD in “physchem” of 2.5.
`NC(=O)c1cn2c(n1)-c1cc(C#CC3(O)CCC3)c(F)cc1OCC2` came in with a Ki in series [1] of 20.2 nM. The logD in “physchem” worked out at 3.4.
Taken in the same sequence, the figures for `CC(O)(C#Cc1cc2c(cc1F)OCCn1cc(C(N)=O)nc1-2)c1nccs1` (racemic) were 1.5 nM and 2.4.
Regarding `CC(C)(O)C#Cc1ccc2c(c1)-c1nc(C(N)=O)sc1C(O)CO2` (racemic), the Ki in [1] is 101 nM; in [2] it was above 1000 nM.
In [1], `NC(=O)c1cn2c(n1)-c1cc(C#CC3(O)COC3)c(F)cc1OCC2` had a Ki of 4280 nM. Further, the logD in “physchem” is 1.2.
In the series “physchem”, `CN(C)C(=O)c1c(C(N)=O)nc2n1CCOc1cc(F)c(C#CC(C)(C)O)cc1-2` yielded a logD of 1.4. Besides, the Ki in series [2] is above 1000 nM.
`NC(=O)c1cccn1Cc1ccccc1Cl` gave a Kd in series [3] of 69000 nM.
In the case of `CC(C)(O)C#Cc1cc2c(cc1F)OCCn1c-2nc(C(N)=O)c1C#N`, the Ki in series [1] was 201 nM; in series [2], above 1000 nM. In the series “physchem”, the logD worked out at 1.6.
For the compound `CC(C)(O)C#Cc1cc2c(cc1F)C1CC(C1)n1cc(C(N)=O)nc1-2`, the Ki in series [1] was 2.9 nM; in series [2], above 1000 nM.
With `Cc1cc([C@](C)(O)C#Cc2cc3c(cc2F)C2CC(C2)n2cc(C(N)=O)nc2-3)no1`, in series [4], the bioavailability amounted to 27%. Moreover, the Vd in [5] is 0.84 L/kg; in [7], 1.9 L/kg. Further, the values for the IC50 (in [6]; in series [11]; in the series with HEK293) were 199 nM, 102 nM and above 20000 nM, respectively. Further, the Papp at 100 µM in series [8] is 10.1 ×10⁻⁶ cm/s. Also, the clearance in series [9] is 13 mL/min/kg; in series [13], 24 mL/min/kg. In [10], the fraction unbound was 0.09. Further, the Ki in [1] is 0.4 nM; in [2], above 1000 nM. The solubility thermodynamic in [12] was 32 µg/mL (≈ 78.7 µM). The logD in the series “physchem” is 3.3.
Take `CC(C)(O)C#Cc1ccc2c(c1)-c1nc(C(N)=O)sc1CCO2`: the values for the Ki in [1] and in series [2] were 28 nM and 216 nM, respectively. In addition, the logD in “physchem” was 2.4.
With `CC(C)(O)C#Cc1cc2c(cc1F)OCCn1c-2nc(C(N)=O)c1-c1cn[nH]c1`, the Ki in series [1] was 7 nM; in [2], above 1000 nM. In addition, the logD in the series “physchem” stood at 1.8.
Consider `Cc1cc([C@](C)(O)C#Cc2cc3c(cc2F)OCCn2cc(C(N)=O)nc2-3)no1`, for which the IC50 was 607 nM in [6], 156 nM in series [11] and above 20000 nM in the series with HEK293. The logD in “physchem” is 1.1. Besides, the Ki in series [2] came to 47 nM.
As to `CN(C)C(=O)C(C)(O)C#Cc1cc2c(cc1F)OCCn1cc(C(N)=O)nc1-2` (centres undefined), in series [1], the Ki came to 986 nM. Besides, in “physchem”, the logD was 1.4.
Compound `CC(O)(C#Cc1cc2c(cc1F)OCCn1cc(C(N)=O)nc1-2)CF` (racemic) displayed a Ki in [1] of 8.7 nM.
As for `CC(C)(O)C#Cc1ccc2c(c1)-c1nc(C(N)=O)cn1CCO2`, the Ki is 310 nM in [1] and 320 nM in series [2]. Also, in the series “physchem”, the logD was 1.4.
`CN1CCCC(O)(C#Cc2cc3c(cc2F)OCCn2cc(C(N)=O)nc2-3)C1=O` (racemic) registered a Ki in [1] of 3 nM. This compound gave a logD in “physchem” of 1.5.
Take `CC(C)(O)C#Cc1cc2c(cc1F)OCCn1c-2nc(C(N)=O)c1C1CC1`: the Ki in series [1] was 41 nM; in series [2], above 1000 nM. In “physchem”, the logD amounted to 1.9.
For the compound `CNC(=O)c1c(C(N)=O)nc2n1CCOc1ccc(C#C[C@@](C)(O)c3cc(C)on3)cc1-2`, the Vd in [14] was found to be 1.1 L/kg; in [5], 1.4 L/kg; in series [7], 0.9 L/kg. Moreover, the bioavailability in series [4] was determined as 51%; in series [16], 140%. The figures for the clearance in series [15], in series [9] and in series [13] were 7 mL/min/kg, 21 mL/min/kg and 7 mL/min/kg, respectively. In addition, the values for the IC50 (in series [6]; in series [11]; in the series with HEK293) were 67 to 87 nM, 40 nM and 13000 nM, respectively. In series [8], the Papp at 100 µM amounted to 7.5 ×10⁻⁶ cm/s. Further, the fraction unbound in series [10] is 0.06. Moreover, the Ki was 0.47 nM in series [1] and above 1000 nM in [2]. Moreover, the solubility thermodynamic in series [12] was 9 µg/mL (≈ 20.7 µM). In addition, the logD in the series “physchem” amounted to 3.
In the case of `CC(C)(O)C#Cc1ccc2c(c1)-c1nc(C(N)=O)cn1C1CC2C1`, the inhibitory constant (Ki) in series [1] is 20 nM; in series [2], above 1000 nM.
As to `CC(C)(O)C#Cc1cc2c(cc1F)OCCn1cc(C(N)=O)nc1-2`, the Ki in series [1] came out at 36 nM. The same compound gave a logD in “physchem” of 1.7.
Regarding `C[C@@H]1Cn2cc(C(N)=O)nc2-c2cc(C#CC(C)(C)O)ccc2O1`, in [2], the Ki was above 1000 nM.
